Measurements from patent US11542255B2, “Sulfonylureas and sulfonylthioureas as NLRP3 inhibitors” (Inflazome Limited, priority 2017, dated 2023).
Structures can show the parent of a compound that is named as a salt.

Tests used:
[1] = PK protocol, intravenous administration; assay type: in vivo, male Sprague Dawley rats; details: male, Sprague Dawley, rat, plasma, dose (mg/kg); for Vd: read-out: Vdss
Description: Pharmacokinetic parameters were determined in male Sprague Dawley rats (Charles River, UK, 250-350 g; or Vital River Laboratory Animal Technology Co Ltd, Beijing, China, 7-9 weeks old). Animals were individually housed during the study and maintained under a 12 h light/dark cycle. Animals had free access to food and water except that some orally dosed animals were food deprived overnight prior to the study.
For intravenous administration, compounds were formulated as a solution in water or […] in 2 mL/kg dosing volume and administered via tail vein. For oral administration, compounds were formulated as a solution in water or DMSO:water [10:90] in 5 mL/kg dosing volume and administered orally.
Serial blood samples (about 120-300 μL) were taken from each animal at each of 8 time-points post dose (0.083, 0.25, 0.5, 1, 2, 4, 8 and 24 h) or at each of 12 time-points post dose (0.03, 0.1, 0.17, 0.25, 0.5, 1, 2, 4, 6, 8, 12 and 24 h) or pre-dose and at each of 9 time-points post dose (0.25, 0.5, 1, 2, 4, 6, 8, 12 and 24 h). Samples were held on ice for no longer than 30 minutes before centrifugation (10,000 rpm (8,385 g) for 3 minutes; or 5,696 rpm (3,0009 for 15 minutes) for plasma generation. Plasma was frozen on dry ice prior to boanalysis. PK parameters were generated from LC-MS/MS data using Dotmatics or Phoenix WinNonlin 6.3 software.

NLRP3 [2] = biological target: T1, NLRP3 (Homo sapiens, UniProt Q96P20); experiment: Human whole blood IL1β release assay (LPS + nigericin, AlphaLisa IL-1β); assay type: cell-based; design: Human whole blood in Li-heparin tubes was obtained from healthy donors from a volunteer donor panel; from tissue; host or cells: human whole blood from healthy donors; details: NLRP3 inhibitory activity, 1 μg/ml LPS, 10 μM nigericin, IL-1β release, read-out: HWB IC50
T1 sequence (Q96P20 whole entry): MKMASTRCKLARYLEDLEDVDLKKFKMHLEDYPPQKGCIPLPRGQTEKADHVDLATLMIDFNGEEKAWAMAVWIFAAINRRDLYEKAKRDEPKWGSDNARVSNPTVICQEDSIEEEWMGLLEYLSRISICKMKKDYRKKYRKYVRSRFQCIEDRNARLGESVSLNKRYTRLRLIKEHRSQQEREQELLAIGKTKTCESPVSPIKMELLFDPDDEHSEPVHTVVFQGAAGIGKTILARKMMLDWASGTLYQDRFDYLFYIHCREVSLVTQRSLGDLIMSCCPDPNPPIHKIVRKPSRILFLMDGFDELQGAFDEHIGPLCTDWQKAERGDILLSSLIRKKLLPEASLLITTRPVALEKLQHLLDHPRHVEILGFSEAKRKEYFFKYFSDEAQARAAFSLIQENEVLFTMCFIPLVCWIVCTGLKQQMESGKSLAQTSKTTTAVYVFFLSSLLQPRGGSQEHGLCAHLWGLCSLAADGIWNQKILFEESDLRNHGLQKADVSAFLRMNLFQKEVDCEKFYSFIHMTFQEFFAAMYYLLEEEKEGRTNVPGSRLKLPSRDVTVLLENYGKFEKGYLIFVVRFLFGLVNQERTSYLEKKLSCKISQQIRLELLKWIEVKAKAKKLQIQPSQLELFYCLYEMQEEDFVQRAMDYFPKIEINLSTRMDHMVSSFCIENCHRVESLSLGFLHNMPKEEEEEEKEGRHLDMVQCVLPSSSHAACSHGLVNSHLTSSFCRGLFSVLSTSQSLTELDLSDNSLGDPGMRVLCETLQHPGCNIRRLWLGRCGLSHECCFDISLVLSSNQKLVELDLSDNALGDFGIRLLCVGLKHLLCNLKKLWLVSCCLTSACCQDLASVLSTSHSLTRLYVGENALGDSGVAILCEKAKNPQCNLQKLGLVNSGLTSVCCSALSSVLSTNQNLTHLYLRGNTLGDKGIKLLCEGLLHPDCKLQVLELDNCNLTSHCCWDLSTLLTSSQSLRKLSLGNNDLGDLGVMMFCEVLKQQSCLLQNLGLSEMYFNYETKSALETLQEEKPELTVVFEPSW
Procedure, shortened: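 Donor human whole blood (Li-heparin) was primed with 1 μg/mL LPS while incubated with compound (8-point half-log, 10 μM top, 0.1% DMSO) for 3 h at 37° C., then stimulated with 10 μM nigericin for 1 h. Supernatant IL-1β measured by AlphaLISA; IC50 from 4-parameter nonlinear fit.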

NLRP3 [3] = biological target: T1, NLRP3; experiment: THP-1 cells pyroptosis assay (LPS + nigericin, resazurin readout); assay type: cell-based; design: Seed THP-1 cells (25,000 cells/well) containing 1.0 μg/ml LPS in 40 μl of RPMI medium; host or cells: THP-1 cells; details: NLRP3 inhibitory activity, 1.0 μg/ml LPS, 5 μM nigericin
Procedure, shortened: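 LPS-primed (1 μg/ml) THP-1 cells, 25,000/well in serum-free RPMI, given compound (8-point half-log, 10 μM top; 0.1% DMSO) for 3 h at 37 °C, then nigericin 5 μM for 1 h. Viability by resazurin (100 μM, 1-2 h), Ex 560/Em 590 nm; IC50 from 4-parameter variable-slope fit.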

| SMILES | AUC [1] [ng·h/mL] | clearance [1] [mL/min/kg] | half-life [1] [h] | Vd [1] [L/kg] | IC50 (NLRP3 [2]) [nM] | IC50 (NLRP3 [3]) [nM] |
| --- | --- | --- | --- | --- | --- | --- |
| CC(c1cc(S(=O)(=O)NC(=O)Nc2c3c(cc4c2CCC4)CCC3)nn1C)N1CCC1 (single isomer, unassigned; enantiomer 2) [Example 27, 5-(1-(Azetidin-1-yl)ethyl)-N-((1,2,3,5,6,7-hexahydro-s-indacen-4-yl)carbamoyl)-1-methyl-1H-pyrazole-3-sulfonamide, Sodium Salt (Enantiomer 2)] | 3900 | 4.3 | 1.1 | 0.33 | < 400 | 40 to 160 |
| CCC(c1cc(S(=O)(=O)NC(=O)Nc2c3c(cc4c2CCC4)CCC3)nn1C)N(C)C (single isomer, unassigned; enantiomer 2) [Example 72, 5-(1-(Dimethylamino)propyl)-N-((1,2,3,5,6,7-hexahydro-s-indacen-4-yl)carbamoyl)-1-methyl-1H-pyrazole-3-sulfonamide, Enantiomer 2] | 2780 | 8.5 | 2.4 | 0.51 | < 400 | < 40 |
| CN(C)CCn1nc(S(=O)(=O)NC(=O)Nc2c3c(cc4c2CCC4)CCC3)cc1CN(C)C [Example 3, 1-(2-(Dimethylamino)ethyl)-5-((dimethylamino)methyl)-N-((1,2,3,5,6,7-hexahydro-s-indacen-4-yl)carbamoyl)-1H-pyrazole-3-sulfonamide] | 1130 | 37 | 1.3 | 1.32 | < 400 | < 40 |
| CN(C)CCn1nc(S(=O)(=O)NC(=O)Nc2c3c(cc4c2CCC4)CCC3)cc1C(C)(C)O [Example 4, 1-(2-(Dimethylamino)ethyl)-N-((1,2,3,5,6,7-hexahydro-s-indacen-4-yl)carbamoyl)-5-(2-hydroxypropan-2-yl)-1H-pyrazole-3-sulfonamide] | 3780 | 4.4 | 1.6 | 0.12 | 400 to 800 | 40 to 160 |
| CCC(c1cc(S(=O)(=O)NC(=O)Nc2c3c(cc4c2CCC4)CCC3)nn1C1CC1)N(C)C (stereo not drawn) [Example 24, 1-Cyclopropyl-5-(1-(dimethylamino)propyl)-N-((1,2,3,5,6,7-hexahydro-s-indacen-4-yl)carbamoyl)-1H-pyrazole-3-sulfonamide] | 1280 | 13 | 1 | 0.84 | < 400 | < 40 |
| CC(c1cc(S(=O)(=O)NC(=O)Nc2c3c(cc4c2CCC4)CCC3)nn1C1CC1)N1CCC1 (stereo not drawn) [Example 25, 5-(˜(Azetidin-1-yl)ethyl)-1-cyclopropyl-N-((1,2,3,5,6,7-hexahydro-s-indacen-4-yl)carbamoyl)-1H-pyrazole-3-sulfonamide] | 3460 | 10 | 1 | 0.58 | < 400 | < 40 |
| O=C(Nc1c2c(cc3c1CCC3)CCC2)NS(=O)(=O)c1cc(CN2CCC2)n(C2CC2)n1 [Example 30, 5-(Azetidin-1-ylmethyl)-1-cyclopropyl-N-((1,2,3,5,6,7-hexahydro-s-indacen-4-yl)carbamoyl)-1H-pyrazole-3-sulfonamide] | 6210 | 2.7 | 2.8 | 0.53 | 400 to 800 | 40 to 160 |
| Cn1nc(S(=O)(=O)[N-]C(=O)Nc2c3c(cc4c2CCC4)CCC3)cc1C[N+](C)(C)C [Example 44, ((1,2,3,5,6,7-Hexahydro-s-indacen-4-yl)carbamoyl)((1-methyl-5-((trimethylammonio)methyl)-1H-pyrazol-3-yl)sulfonyl)amide] | 3120 | 5.3 | 1.2 | 0.21 | < 400 | 640 to 2560 |
| CCn1nc(S(=O)(=O)NC(=O)Nc2c3c(cc4c2CCC4)CCC3)cc1CN1CCC1 [Example 49, 5-(Azetidin-1-ylmethyl)-1-ethyl-N-((1,2,3,5,6,7-hexahydro-s-indacen-4-yl)carbamoyl)-1H-pyrazole-3-sulfonamide] | 6630 | 2.7 | 2.2 | 0.34 | < 400 | 40 to 160 |
| CCn1nc(S(=O)(=O)NC(=O)Nc2c3c(cc4c2CCC4)CCC3)cc1CN(C)C [Example 52, 5-((Dimethylamino)methyl)-1-ethyl-N-((1,2,3,5,6,7-hexahydro-s-indacen-4-yl)carbamoyl)-1H-pyrazole-3-sulfonamide] | 7970 | 3.5 | 1.5 | 0.39 | < 400 | < 40 |
| CCC(c1cc(S(=O)(=O)NC(=O)Nc2c3c(cc4c2CCC4)CCC3)nn1C(C)C)N(C)C (stereo not drawn) [Example 63, 5-(1-(Dimethylamino)propyl)-N-((1,2,3,5,6,7-hexahydro-s-indacen-4-yl)carbamoyl)-1-isopropyl-1H-pyrazole-3-sulfonamide] | 4010 | 4.2 | 0.8 | 0.25 | < 400 | < 40 |
| CC(c1cc(S(=O)(=O)NC(=O)Nc2c3c(cc4c2CCC4)CCC3)nn1C(C)C)N(C)C (stereo not drawn) [Example 73, 5-(1-(Dimethylamino)ethyl)-N-((1,2,3,5,6,7-hexahydro-s-indacen-4-yl)carbamoyl)-1-isopropyl-1H-pyrazole-3-sulfonamide] | 4250 | 4.3 | 3.5 | 0.51 | < 400 | < 40 |
| CC(c1cc(S(=O)(=O)NC(=O)Nc2c3c(cc4c2CCC4)CCC3)nn1C)N(C)C (stereo not drawn) [Example 77, 5-(1-(Dimethylamino)ethyl)-N-((1,2,3,5,6,7-hexahydro-s-indacen-4-yl)carbamoyl)-1-methyl-1H-pyrazole-3-sulfonamide] | 4440 | 3.8 | 3.5 | 0.38 | < 400 | < 40 |
| CCN(C)Cc1cc(S(=O)(=O)NC(=O)Nc2c3c(cc4c2CCC4)CCC3)nn1C [Example 84, 5-((Ethyl(methyl)amino)methyl)-N-((1,2,3,5,6,7-hexahydro-s-indacen-4-yl)carbamoyl)-1-methyl-1H-pyrazole-3-sulfonamide] | 2490 | 6.7 | 1 | 0.47 | 400 to 800 | 40 to 160 |
| Cn1nc(S(=O)(=O)NC(=O)Nc2c3c(cc4c2CCC4)CCC3)cc1CN1CCC1 [Example 86, 5-(Azetidin-1-ylmethyl)-N-((1,2,3,5,6,7-hexahydro-s-indacen-4-yl)carbamoyl)-1-methyl-1H-pyrazole-3-sulfonamide, Sodium Salt] | 4400 | 3.8 | 3.2 | 0.48 | 800 to 1600 | 160 to 640 |
| CC(C)c1cc(F)cc(C(C)C)c1NC(=O)NS(=O)(=O)c1cc(CN2CCC2)n(C)n1 [Example 88, 5-(Azetidin-1-ylmethyl)-N-((4-fluoro-2,6-diisopropylphenyl)carbamoyl)-1-methyl-1H-pyrazole-3-sulfonamide, Sodium Salt] | 1500 | 11.2 | 4.3 | 1.64 | < 400 | 160 to 640 |
| CCN(C)Cc1cc(S(=O)(=O)NC(=O)Nc2c(C(C)C)cc(F)cc2C(C)C)nn1C [Example 89, 5-((Ethyl(methyl)amino)methyl)-N-((4-fluoro-2,6-diisopropylphenyl)carbamoyl)-1-methyl-1H-pyrazole-3-sulfonamide, sodium Salt] | 1020 | 16.3 | 1.4 | 1.4 | < 400 | 160 to 640 |
| CC(C)N(C)Cc1cc(S(=O)(=O)NC(=O)Nc2c3c(cc4c2CCC4)CCC3)nn1C [Example 91, N-((1,2,3,5,6,7-Hexahydro-s-indacen-4-yl)carbamoyl)-5-((isopropyl(methyl)amino)methyl)-1-methyl-1H-pyrazole-3-sulfonamide] | 2620 | 6.9 | 4.3 | 1.03 | 400 to 800 | 160 to 640 |
